# Columns and labels:
# Assay type in all cases: in vivo
# corn [1] = assay: Example 2, Procedure II: dichloroacetamide antidotes against Herbicide No. 1; details: Herb. No. 1 0.14 kg/ha + antidote 0.56 kg/ha
# Procedure: Containers were filled and compacted with a fumigated silt loam top soil to a depth of about 1.3 cm from the top of the container. A first container was designated as an untreated control, a second container was designated as a herbicide control, and a third container was designated as a herbicide + antidote test container. Each of the containers was seeded with a crop species. A measured amount of herbicide dispersed or dissolved in acetone was applied to a measured quantity of soil. To this same quantity of soil treated with herbicide, there was added a measured amount of antidote dispersed or dissolved in acetone. The quantity of soil treated with the herbicide and antidote was thoroughly mixed to incorporate the herbicide and antidote in the soil uniformly. The seed bed in the third container of soil was covered with the soil treated with the herbicide and antidote and the container was leveled. For each test series, the seed beds of the first and second containers were likewise covered by soil layers. the cover layer of the first container was not treated with herbicide or antidote.
# The containers were then placed on a bench in a greenhouse and sub-irrigated as required for the duration of the test. […] Plant response is measured in terms of percent injury. Antidote efficacy is indicated as the difference in plant injury by the herbicide(s) without the antidote and with the antidote.
# This procedure is the same as Procedure I, but modified in the manner that after incorporation of the chemicals (herbicide and antidote) the containers with the covered seedbed were treated with an initial overhead irrigation equivalent to 0.6 cm rainfall, then subsequently sub-irrigated as required on greenhouse benches.
# In this example, a plurality of dichloroacetamide antidotes were tested for their safening efficacy against Herbicide No. 1 in corn, using Procedure II. In this test the weed was velvetleaf; barnyardgrass was not present in this test.
# corn [2] = assay: Example 3, Procedure I: antidotes against Herbicide No. 1
# Method in brief: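 Herbicide and antidote, each in acetone, mixed into a soil layer covering the seeded corn bed; untreated and herbicide-only controls run alongside. Greenhouse, sub-irrigated, barnyardgrass present; herbicide 4.48 down to 0.56 kg/ha. Percent injury scored; efficacy = injury without minus with antidote.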
# corn [3] = assay: Example 8, Procedure II: Herbicide No. 1 + butachlor (No. 9) with antidotes
# Method in brief: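 Corn sown in silt loam and covered with soil pre-mixed with acetone-applied Herbicide No. 1 plus butachlor, with or without antidote. Given 0.6 cm overhead irrigation, then sub-irrigated in greenhouse; antidote effect is percent injury without minus with antidote.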
# [4] = tested on: barnyardgrass (Echinochloa crusgalli); assay: Example 10, Procedure II: Herbicide No. 1 + propachlor (No. 5) with antidotes
# Method in brief: (§1)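 Herbicide No. 1 plus propachlor and antidote, each in acetone, incorporated into silt loam cover soil over seeded corn/weed beds; untreated and herbicide-only controls included. Initial overhead irrigation equal to 0.6 cm rainfall, then greenhouse sub-irrigation. Response scored as percent injury; safening taken as injury difference without versus with antidote.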
# [5] = tested on: velvetleaf (Abutilon theophrasti); assay: as above
# Method in brief: as §1
# [6] = tested on: Giant foxtail (Setaria fabergi); assay: Example 24, Procedure II: Herbicide No. 1 + co-herbicides Nos. 4, 6, 7, 12 with Antidote Nos. 15 and 17-21
# Method in brief: (§2)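 Greenhouse pots, herbicide No. 1 plus co-herbicides and antidote in acetone incorporated into silt loam soil covering the corn seed bed, with giant foxtail and velvetleaf; initial overhead irrigation equal to 0.6 cm rainfall, then sub-irrigation. Antidote at 2.24 kg/ha; percent injury read 13 days after application, duplicate average.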
# corn [7] = assay: as above
# Method in brief: as §2
# [8] = Herbicide No.1 0.14 kg/ha + Herbicide No.5 4.48 kg/ha, antidote rate 2.24 kg/ha
# [9] = Herbicide No.1 0.14 kg/ha + Herbicide No.5 4.48 kg/ha, antidote rate 8.96 kg/ha
# [10] = Herbicide No.1 0.56 kg/ha + Herbicide No.5 4.48 kg/ha, antidote rate 2.24 kg/ha
# [11] = Herbicide No.1 0.56 kg/ha + Herbicide No.5 4.48 kg/ha, antidote rate 8.96 kg/ha
# [12] = Herb. No. 1 0.07 Kg/ha + Co-Herb. No. 4 1.12 Kg/ha + antidote 2.24 Kg/ha
# [13] = Herb. No. 1 0.07 Kg/ha + Co-Herb. No. 6 0.14 Kg/ha + antidote 2.24 Kg/ha
# [14] = Herb. No. 1 0.07 Kg/ha + Co-Herb. No. 7 0.28 Kg/ha + antidote 2.24 Kg/ha
# [15] = Herb. No. 1 0.07 Kg/ha + Co-Herb. No. 12 0.28 Kg/ha + antidote 2.24 Kg/ha
# [16] = Herb. No. 1 0.14 Kg/ha + Co-Herb. No. 4 1.12 Kg/ha + antidote 2.24 Kg/ha
# [17] = Herb. No. 1 0.14 Kg/ha + Co-Herb. No. 6 0.14 Kg/ha + antidote 2.24 Kg/ha
# [18] = Herb. No. 1 0.14 Kg/ha + Co-Herb. No. 7 0.28 Kg/ha + antidote 2.24 Kg/ha
# [19] = Herb. No. 1 0.14 Kg/ha + Co-Herb. No. 12 0.28 Kg/ha + antidote 2.24 Kg/ha
# [20] = Herb. No. 1 0.28 Kg/ha + Co-Herb. No. 4 1.12 Kg/ha + antidote 2.24 Kg/ha
# [21] = Herb. No. 1 0.28 Kg/ha + Co-Herb. No. 6 0.14 Kg/ha + antidote 2.24 Kg/ha
# [22] = Herb. No. 1 0.28 Kg/ha + Co-Herb. No. 7 0.28 Kg/ha + antidote 2.24 Kg/ha
# [23] = Herb. No. 1 0.28 Kg/ha + Co-Herb. No. 12 0.28 Kg/ha + antidote 2.24 Kg/ha
# [24] = Herb. No. 1 0.56 Kg/ha + Co-Herb. No. 4 1.12 Kg/ha + antidote 2.24 Kg/ha
# [25] = Herb. No. 1 0.56 Kg/ha + Co-Herb. No. 6 0.14 Kg/ha + antidote 2.24 Kg/ha
# [26] = Herb. No. 1 0.56 Kg/ha + Co-Herb. No. 7 0.28 Kg/ha + antidote 2.24 Kg/ha
# [27] = Herb. No. 1 0.56 Kg/ha + Co-Herb. No. 12 0.28 Kg/ha + antidote 2.24 Kg/ha
smiles,measurement,setting,value
CC1(C)OC(c2ccco2)CN1C(=O)C(Cl)Cl (stereo not shown) [compound 15],% Injury Corn,corn [1],5%
same,% Injury Corn,corn [2]; Herb. No. 1 0.56 kg/ha + antidote 0.56 kg/ha,0%
same,% Injury Corn,corn [2]; Herb. No. 1 0.56 kg/ha + antidote 2.24 kg/ha,0%
same,% Injury Corn,corn [2]; Herb. No. 1 0.56 kg/ha + antidote 8.96 kg/ha,0%
same,% Injury Corn,corn [2]; Herb. No. 1 1.12 kg/ha + antidote 0.56 kg/ha,0%
same,% Injury Corn,corn [2]; Herb. No. 1 1.12 kg/ha + antidote 2.24 kg/ha,0%
same,% Injury Corn,corn [2]; Herb. No. 1 1.12 kg/ha + antidote 8.96 kg/ha,0%
same,% Injury Corn,corn [2]; Herb. No. 1 2.24 kg/ha + antidote 0.56 kg/ha,15%
same,% Injury Corn,corn [2]; Herb. No. 1 2.24 kg/ha + antidote 2.24 kg/ha,0%
same,% Injury Corn,corn [2]; Herb. No. 1 2.24 kg/ha + antidote 8.96 kg/ha,0%
same,% Injury Corn,corn [2]; Herb. No. 1 4.48 kg/ha + antidote 0.56 kg/ha,0%
same,% Injury Corn,corn [2]; Herb. No. 1 4.48 kg/ha + antidote 2.24 kg/ha,5%
same,% Injury Corn,corn [2]; Herb. No. 1 4.48 kg/ha + antidote 8.96 kg/ha,0%
same,% Injury Corn,"corn [2]; antidote 8.96 kg/ha alone, no herbicide",0%
same,% Injury Corn,corn [3]; Herbicide No.1 0.14 + No.9 2.24 kg/ha + antidote 2.24 kg/ha,20%
same,% Injury Corn,corn [3]; Herbicide No.1 0.14 + No.9 2.24 kg/ha + antidote 8.96 kg/ha,15%
same,% Injury Corn,corn [3]; Herbicide No.1 0.56 + No.9 2.24 kg/ha + antidote 2.24 kg/ha,10%
same,% Injury Corn,corn [3]; Herbicide No.1 0.56 + No.9 2.24 kg/ha + antidote 8.96 kg/ha,10%
same,% Injury BYG,[4]; [8],98%
same,% Injury BYG,[4]; [9],90%
same,% Injury BYG,[4]; [10],93%
same,% Injury BYG,[4]; [11],85%
same,% Injury VL,[5]; [8],70%
same,% Injury VL,[5]; [9],80%
same,% Injury VL,[5]; [10],80%
same,% Injury VL,[5]; [11],75%
same,% Inhibition GFT,[6]; [12],40%
same,% Inhibition GFT,[6]; [13],100%
same,% Inhibition GFT,[6]; [14],100%
same,% Inhibition GFT,[6]; [15],99%
same,% Inhibition GFT,[6]; [16],65%
same,% Inhibition GFT,[6]; [17],100%
same,% Inhibition GFT,[6]; [18],100%
same,% Inhibition GFT,[6]; [19],99%
same,% Inhibition GFT,[6]; [20],60%
same,% Inhibition GFT,[6]; [21],100%
same,% Inhibition GFT,[6]; [22],100%
same,% Inhibition GFT,[6]; [23],100%
same,% Inhibition GFT,[6]; [24],60%
same,% Inhibition GFT,[6]; [25],99%
same,% Inhibition GFT,[6]; [26],100%
same,% Inhibition GFT,[6]; [27],99%
same,% Inhibition Corn,corn [7]; [12],0%
same,% Inhibition Corn,corn [7]; [13],5%
same,% Inhibition Corn,corn [7]; [14],0%
same,% Inhibition Corn,corn [7]; [15],5%
same,% Inhibition Corn,corn [7]; [16],10%
same,% Inhibition Corn,corn [7]; [17],5%
same,% Inhibition Corn,corn [7]; [18],0%
same,% Inhibition Corn,corn [7]; [19],5%
same,% Inhibition Corn,corn [7]; [20],5%
same,% Inhibition Corn,corn [7]; [21],10%
same,% Inhibition Corn,corn [7]; [22],0%
same,% Inhibition Corn,corn [7]; [23],5%
same,% Inhibition Corn,corn [7]; [24],15%
same,% Inhibition Corn,corn [7]; [25],10%
same,% Inhibition Corn,corn [7]; [26],5%
same,% Inhibition Corn,corn [7]; [27],5%
